Laboratory results from article PMC10046693, “KI04 an Aminoglycosides-Derived Molecule Acts as an Inhibitor of Human Connexin46 Hemichannels Expressed in HeLa Cells” (Biomolecules, 2023).

Tests used:
[1] = molecular target: T1, Connexin46 (Cx46) hemichannel (Homo sapiens, UniProt Q9Y6H8); test: DAPI uptake dose response in Cx46tGFP HeLa cells; whole-cell patch clamp ([…] KI04 decreased currents); assay type: cell-based
T1 construct: gene GJA3; human Cx46tGFP (turbo GFP fusion) expressed in HeLa cells

[2] = molecular target: T1, Connexin46 (Cx46) hemichannel; test: DAPI uptake dose response in Cx46tGFP HeLa cells; assay type: cell-based

Structure (SMILES): CCCCCCCCCCCC(=O)NC[C@@H]1O[C@H](O[C@H]2[C@H](O)[C@@H](O[C@H]3O[C@H](CO)[C@@H](O)[C@H](N)[C@H]3O)[C@H](N)C[C@@H]2N)[C@H](O)[C@@H](O)[C@@H]1O [KI04]
- IC50 [1]: ~7.7 µM

Structure (SMILES): NC[C@H]1O[C@H](O[C@H]2[C@H](O)[C@@H](O[C@H]3O[C@H](CO)[C@@H](O)[C@H](N)[C@H]3O)[C@H](N)C[C@@H]2N)[C@H](O)[C@@H](O)[C@@H]1O [kanamycin]
- IC50 [2]: 1.7 µM
